In assay [1] the target is Adrenergic receptor alpha-2 (Rattus norvegicus) (UniProt P22086+P19328+P22909). The assay can be described thus: Ratio of binding affinity towards Alpha-2 and alpha-1 adrenergic receptor. The class given is protein assay.
Assay [2] deals with T1, Adrenergic receptor alpha-2 (Rattus norvegicus, UniProt P22086+P19328+P22909).
T1 sequence (P22086 whole entry): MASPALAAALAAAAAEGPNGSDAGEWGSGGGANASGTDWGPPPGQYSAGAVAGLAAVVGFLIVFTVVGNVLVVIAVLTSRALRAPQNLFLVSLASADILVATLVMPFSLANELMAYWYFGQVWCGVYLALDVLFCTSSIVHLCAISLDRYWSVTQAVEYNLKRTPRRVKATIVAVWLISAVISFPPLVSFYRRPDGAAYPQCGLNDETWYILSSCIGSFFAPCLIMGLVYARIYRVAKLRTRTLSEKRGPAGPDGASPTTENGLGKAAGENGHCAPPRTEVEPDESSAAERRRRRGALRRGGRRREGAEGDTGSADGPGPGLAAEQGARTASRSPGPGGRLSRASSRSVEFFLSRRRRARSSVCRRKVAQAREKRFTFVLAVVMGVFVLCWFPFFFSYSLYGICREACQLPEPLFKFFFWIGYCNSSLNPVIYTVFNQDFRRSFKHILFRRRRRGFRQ
T1 sequence (P19328 whole entry): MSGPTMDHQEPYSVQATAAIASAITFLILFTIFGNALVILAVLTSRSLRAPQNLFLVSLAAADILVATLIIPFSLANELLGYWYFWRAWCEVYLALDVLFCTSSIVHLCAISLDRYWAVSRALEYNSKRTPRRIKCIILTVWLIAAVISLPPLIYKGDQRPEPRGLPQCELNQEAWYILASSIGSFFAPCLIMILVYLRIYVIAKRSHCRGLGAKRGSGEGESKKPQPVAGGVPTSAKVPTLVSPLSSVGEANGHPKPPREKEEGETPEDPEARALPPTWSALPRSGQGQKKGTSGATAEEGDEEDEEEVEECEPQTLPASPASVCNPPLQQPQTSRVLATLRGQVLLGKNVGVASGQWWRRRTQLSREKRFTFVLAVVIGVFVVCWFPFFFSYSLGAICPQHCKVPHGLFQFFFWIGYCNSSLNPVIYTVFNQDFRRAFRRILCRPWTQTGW
T1 sequence (P22909 whole entry): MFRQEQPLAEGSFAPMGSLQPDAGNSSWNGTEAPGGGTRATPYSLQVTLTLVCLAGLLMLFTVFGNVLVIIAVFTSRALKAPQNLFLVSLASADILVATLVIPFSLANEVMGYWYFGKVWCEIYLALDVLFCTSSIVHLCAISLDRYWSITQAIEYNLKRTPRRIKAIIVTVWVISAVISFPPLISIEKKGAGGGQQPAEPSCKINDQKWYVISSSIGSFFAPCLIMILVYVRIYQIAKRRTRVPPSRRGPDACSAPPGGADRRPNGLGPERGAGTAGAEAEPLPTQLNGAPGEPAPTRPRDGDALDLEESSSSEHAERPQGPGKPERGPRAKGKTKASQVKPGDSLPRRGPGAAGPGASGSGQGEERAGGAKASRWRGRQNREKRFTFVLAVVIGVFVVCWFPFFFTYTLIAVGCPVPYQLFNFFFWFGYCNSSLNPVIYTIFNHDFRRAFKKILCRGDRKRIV
Kind of assay: Binding affinity towards alpha-2 adrenergic receptor in rat cortex membrane using [3H]rauwolscine radioligand. The format is cell membranes.

Assay [3] addresses T2, Adrenergic receptor alpha-1 (Rattus norvegicus, UniProt P15823+P23944+P43140).
T2 sequence (P15823 whole entry): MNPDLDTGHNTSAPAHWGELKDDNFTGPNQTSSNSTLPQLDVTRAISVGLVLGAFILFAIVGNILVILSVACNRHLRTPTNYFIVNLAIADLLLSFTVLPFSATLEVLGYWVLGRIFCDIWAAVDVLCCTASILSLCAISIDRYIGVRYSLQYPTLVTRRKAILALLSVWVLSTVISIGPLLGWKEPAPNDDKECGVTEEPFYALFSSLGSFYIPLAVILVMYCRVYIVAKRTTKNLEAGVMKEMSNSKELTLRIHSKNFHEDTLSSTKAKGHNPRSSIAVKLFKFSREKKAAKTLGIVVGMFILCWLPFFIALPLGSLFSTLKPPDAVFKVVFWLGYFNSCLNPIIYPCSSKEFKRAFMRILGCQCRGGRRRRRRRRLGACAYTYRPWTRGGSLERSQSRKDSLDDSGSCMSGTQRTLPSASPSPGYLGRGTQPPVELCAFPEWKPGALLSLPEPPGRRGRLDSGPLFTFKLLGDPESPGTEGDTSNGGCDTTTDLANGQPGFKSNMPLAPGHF
T2 sequence (P23944 whole entry): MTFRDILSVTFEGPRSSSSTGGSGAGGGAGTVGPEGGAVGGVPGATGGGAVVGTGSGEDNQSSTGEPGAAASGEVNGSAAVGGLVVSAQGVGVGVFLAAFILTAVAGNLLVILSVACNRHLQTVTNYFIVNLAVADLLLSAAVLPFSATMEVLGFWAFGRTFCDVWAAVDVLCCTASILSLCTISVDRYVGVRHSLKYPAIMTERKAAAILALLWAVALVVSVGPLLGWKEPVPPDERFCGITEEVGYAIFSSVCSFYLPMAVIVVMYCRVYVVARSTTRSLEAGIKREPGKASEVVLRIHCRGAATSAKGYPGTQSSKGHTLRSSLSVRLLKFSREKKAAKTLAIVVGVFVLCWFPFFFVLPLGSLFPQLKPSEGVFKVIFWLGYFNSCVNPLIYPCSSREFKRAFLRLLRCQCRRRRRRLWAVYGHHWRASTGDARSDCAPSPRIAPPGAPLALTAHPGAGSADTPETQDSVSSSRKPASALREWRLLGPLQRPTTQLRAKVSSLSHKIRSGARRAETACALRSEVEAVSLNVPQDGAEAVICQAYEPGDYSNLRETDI
T2 sequence (P43140 whole entry): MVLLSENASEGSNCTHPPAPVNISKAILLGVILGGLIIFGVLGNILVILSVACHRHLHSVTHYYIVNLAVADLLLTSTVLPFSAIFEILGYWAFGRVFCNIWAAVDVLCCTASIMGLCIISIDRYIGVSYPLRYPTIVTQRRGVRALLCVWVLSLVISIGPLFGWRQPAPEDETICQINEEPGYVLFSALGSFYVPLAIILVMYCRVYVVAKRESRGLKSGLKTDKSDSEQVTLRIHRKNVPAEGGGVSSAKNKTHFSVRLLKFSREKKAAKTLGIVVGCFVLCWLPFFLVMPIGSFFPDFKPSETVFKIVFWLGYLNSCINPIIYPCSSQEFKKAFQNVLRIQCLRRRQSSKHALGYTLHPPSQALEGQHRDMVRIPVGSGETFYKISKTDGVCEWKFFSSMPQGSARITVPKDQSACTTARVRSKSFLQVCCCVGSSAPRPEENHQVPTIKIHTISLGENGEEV
Kind of assay: Binding affinity towards alpha-1 adrenergic receptor in rat cortex membrane using [3H]-prazosin radioligand. The format is cell membranes.

Each structure is given as a SMILES string.

`COc1ccccc1OCCN1CCN(c2ccc(=O)n(CCCCCCN3CCN(c4ccccc4Cl)CC3)n2)CC1`: the Ratio in assay [1] was 16.5. Besides, the Ki in assay [2] came out at 138.8 nM; in assay [3], 8.4 nM.

On to `O=C(c1ccco1)N1CCN(c2cnn(CCCN3CCN(c4ccccc4Cl)CC3)c(=O)c2Cl)CC1`, for which, in assay [1], the Ratio came to 24.3. Also, the results for the Ki in assay [2] and in assay [3] were 85 nM and 3.5 nM, respectively.

Turning to `COc1ccccc1N1CCN(CCCCn2ncc(N3CCN(C(=O)c4ccco4)CC3)c(Cl)c2=O)CC1`, the Ratio in assay [1] was 26. Further, the figures for the Ki in assay [2] and in assay [3] were 870 nM and 33.5 nM, respectively.

For `COc1ccccc1OCCN1CCN(c2ccc(=O)n(CCCCN3CCN(c4ccccc4OC)CC3)n2)CC1`, the Ratio in assay [1] was 103. The inhibitory constant (Ki) is 62 nM in assay [2] and 0.6 nM in assay [3].

For `O=C(c1ccco1)N1CCN(c2cnn(CCN3CCN(c4ccccc4Cl)CC3)c(=O)c2Cl)CC1`, the Ratio in assay [1] stood at 38.4. Besides, the Ki came to 150 nM in assay [2] and 3.9 nM in assay [3].

With `COc1ccccc1OCCN1CCN(c2ccc(=O)n(CCCCCCN3CCN(c4ccccc4OC)CC3)n2)CC1`, the Ratio in assay [1] worked out at 10.2. Moreover, the inhibitory constant (Ki) in assay [2] is on record as 71.8 nM; in assay [3] it was 7 nM.

As to `O=C(c1ccco1)N1CCN(c2cnn(CCCCN3CCN(c4ccccc4Cl)CC3)c(=O)c2Cl)CC1`, the Ratio in assay [1] was determined as 14.7. In addition, the results for the Ki in assay [2] and in assay [3] were 280 nM and 19 nM, respectively.

With `COc1ccccc1N1CCN(CCCCn2nc(N3CCN(C(=O)c4ccco4)CC3)ccc2=O)CC1`, in assay [1], the Ratio was 4.4. Also, the Ki in assay [2] is recorded as 790 nM; in assay [3] it was 180 nM.

Take `COc1ccccc1OCCN1CCN(c2cnn(CCCCCCN3CCN(c4ccccc4Cl)CC3)c(=O)c2Cl)CC1`: the Ratio in assay [1] is 6. Also, the Ki in assay [2] is reported as 25.2 nM; in assay [3], 4.2 nM.

On to `COc1ccccc1N1CCN(CCCCCn2nc(N3CCN(C(=O)c4ccco4)CC3)ccc2=O)CC1`, for which, in assay [1], the Ratio was determined as 5.8. Moreover, the results for the Ki in assay [2] and in assay [3] were 255 nM and 43.7 nM, respectively.

As to `COc1ccccc1OCCN1CCN(c2cnn(CCCCCCCCN3CCN(c4ccccc4Cl)CC3)c(=O)c2Cl)CC1`, in assay [1], the Ratio amounted to 4. Besides, the values for the inhibition constant (Ki) in assay [2] and in assay [3] were 22.8 nM and 5.6 nM, respectively.

In the case of `COc1ccccc1N1CCN(CCCn2ncc(N3CCN(C(=O)c4ccco4)CC3)c(Cl)c2=O)CC1`, the Ratio in assay [1] is 33.3. Further, the results for the Ki in assay [2] and in assay [3] were 680 nM and 20.4 nM, respectively.

Turning to `COc1ccccc1OCCN1CCN(c2cnn(CCCCN3CCN(c4ccccc4Cl)CC3)c(=O)c2Cl)CC1`, the Ratio in assay [1] is 4. The results for the Ki in assay [2] and in assay [3] were 39.3 nM and 10 nM, respectively.

As to `O=C(c1ccco1)N1CCN(c2ccc(=O)n(CCCCCCN3CCN(c4ccccc4Cl)CC3)n2)CC1`, the Ratio in assay [1] is 4. Further, the inhibition constant Ki in assay [2] was determined as 23.7 nM; in assay [3] it was 5.9 nM.

As to `COc1ccccc1N1CCN(CCCCCCCn2ncc(N3CCN(C(=O)c4ccco4)CC3)c(Cl)c2=O)CC1`, in assay [1], the Ratio was 274. The Ki in assay [2] is reported as 520 nM; in assay [3], 1.9 nM.

Regarding `O=C(c1ccco1)N1CCN(c2cnn(CCCCCCN3CCN(c4ccccc4Cl)CC3)c(=O)c2Cl)CC1`, the Ratio in assay [1] was 11.6. Moreover, the Ki in assay [2] is 66 nM; in assay [3], 5.7 nM.

Take `COc1ccccc1OCCN1CCN(c2ccc(=O)n(CCCCCN3CCN(c4ccccc4Cl)CC3)n2)CC1`: in assay [1], the Ratio amounted to 20. For the same molecule, the Ki in assay [2] came out at 138 nM; in assay [3], 7 nM.

With `COc1ccccc1N1CCN(CCCCCCn2ncc(N3CCN(C(=O)c4ccco4)CC3)c(Cl)c2=O)CC1`, the Ratio in assay [1] was 6. The Ki in assay [2] came out at 24.5 nM; in assay [3], 4.1 nM.

Regarding `O=C(c1ccco1)N1CCN(c2ccc(=O)n(CCCCCN3CCN(c4ccccc4Cl)CC3)n2)CC1`, the Ratio in assay [1] came out at 7.9. The Ki is recorded as 105 nM in assay [2] and 13.3 nM in assay [3].

`COc1ccccc1OCCN1CCN(c2cnn(CCCCCCCN3CCN(c4ccccc4OC)CC3)c(=O)c2Cl)CC1`: the Ratio in assay [1] is 3.2. Besides, the Ki in assay [2] was found to be 4.6 nM; in assay [3] it was 1.4 nM.

Take `O=C(c1ccco1)N1CCN(c2ccc(=O)n(CCCCCCCN3CCN(c4ccccc4Cl)CC3)n2)CC1`: in assay [1], the Ratio is 4.2. In addition, the figures for the Ki in assay [2] and in assay [3] were 23.5 nM and 5.6 nM, respectively.

In the case of `COc1ccccc1OCCN1CCN(c2cnn(CCCN3CCN(c4ccccc4Cl)CC3)c(=O)c2Cl)CC1`, the Ratio in assay [1] was 7.8. Moreover, the results for the Ki in assay [2] and in assay [3] were 219 nM and 27.8 nM, respectively.

`O=C(c1ccco1)N1CCN(c2cnn(CCCCCCCN3CCN(c4ccccc4Cl)CC3)c(=O)c2Cl)CC1`: in assay [1], the Ratio came out at 3.1. The Ki came out at 36.2 nM in assay [2] and 11.5 nM in assay [3].

On to `COc1ccccc1OCCN1CCN(c2cnn(CCCN3CCN(c4ccccc4OC)CC3)c(=O)c2Cl)CC1`, for which the Ratio in assay [1] was determined as 17. Moreover, the Ki stood at 245 nM in assay [2] and 14.5 nM in assay [3].

Regarding `COc1ccccc1OCCN1CCN(c2ccc(=O)n(CCN3CCN(c4ccccc4Cl)CC3)n2)CC1`, the Ratio in assay [1] was 20.5. Besides, the Ki is 370 nM in assay [2] and 18 nM in assay [3].

For `COc1ccccc1OCCN1CCN(c2ccc(=O)n(CCCN3CCN(c4ccccc4Cl)CC3)n2)CC1`, in assay [1], the Ratio was 46.5. For the same molecule, the Ki in assay [2] was 316 nM; in assay [3], 6.8 nM.

Usually Ki stands for a measure of affinity in units of concentration, obtained from inhibition or displacement.

(Values after ChEMBL document CHEMBL1134688, “Synthesis, biological evaluation, and pharmacophore generation of new pyridazinone derivatives with affinity toward alpha(1)- and alpha(2)-adrenoceptors” (J Med Chem, 2001).)
